# Measurements published in PubChem BioAssay AID1963830 (Molecular Pharmacology Branch, DTP, NCI, 2024).
# Tested on: 922993-354-T-J3-PDC complex spheroid viability
# Assay: Anticancer human tumor 922993-354-T-J3-PDC patient-derived endometrial carcinoma cell line growth inhibition [POLQ]
# Details: for IC50: curve of first compound; for viability, T/C: stronger effect = lower value
# How it was run: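 Three-cell-type spheroids modelling solid tumor plus stroma served as the readout system; POL inhibitors were tested individually and in combination, concentration ranges set by clinical Cmax where known.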
# [1] = second compound 0.0316 µM, first compound 0.0316 µM
# [2] = second compound 0.0316 µM, first compound 0.1 µM
# [3] = second compound 0.0316 µM, first compound 0.316 µM
# [4] = second compound 0.0316 µM, first compound 1 µM
# [5] = second compound 0.0316 µM, first compound 3.16 µM
# [6] = second compound 0.0316 µM, first compound 10 µM
# [7] = second compound 0.1 µM, first compound 0.0316 µM
# [8] = second compound 0.1 µM, first compound 0.1 µM
# [9] = second compound 0.1 µM, first compound 0.316 µM
# [10] = second compound 0.1 µM, first compound 1 µM
# [11] = second compound 0.1 µM, first compound 3.16 µM
# [12] = second compound 0.1 µM, first compound 10 µM
# [13] = second compound 0.316 µM, first compound 0.0316 µM
# [14] = second compound 0.316 µM, first compound 0.1 µM
# [15] = second compound 0.316 µM, first compound 0.316 µM
# [16] = second compound 0.316 µM, first compound 1 µM
# [17] = second compound 0.316 µM, first compound 3.16 µM
# [18] = second compound 0.316 µM, first compound 10 µM
# [19] = second compound 1 µM, first compound 0.0316 µM
# [20] = second compound 1 µM, first compound 0.1 µM
# [21] = second compound 1 µM, first compound 0.316 µM
# [22] = second compound 1 µM, first compound 1 µM
# [23] = second compound 1 µM, first compound 3.16 µM
# [24] = second compound 1 µM, first compound 10 µM
# [25] = second compound 3.16 µM, first compound 0.0316 µM
# [26] = second compound 3.16 µM, first compound 0.1 µM
# [27] = second compound 3.16 µM, first compound 0.316 µM
# [28] = second compound 3.16 µM, first compound 1 µM
# [29] = second compound 3.16 µM, first compound 3.16 µM
# [30] = second compound 3.16 µM, first compound 10 µM
# [31] = second compound 10 µM, first compound 0.0316 µM
# [32] = second compound 10 µM, first compound 0.1 µM
# [33] = second compound 10 µM, first compound 0.316 µM
# [34] = second compound 10 µM, first compound 1 µM
# [35] = second compound 10 µM, first compound 3.16 µM
# [36] = second compound 10 µM, first compound 10 µM
# 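Also: spheroids exposed to the agents for one week.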
# 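For viability, T/C in this document: 100% = DMSO vehicle control wells.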
structure (smiles),measurement,setting,value
COc1cc2cc(C(=O)CCC(=O)O)sc2cc1OC + Cc1cccc(N(C)C(=O)C2C(O)CCN2c2nc(C)cc(C(F)(F)F)c2C#N)c1,IC50,second compound 0.0316 µM,> 10 µM
same,IC50,second compound 0.1 µM,> 10 µM
same,IC50,second compound 0.316 µM,> 10 µM
same,IC50,second compound 1 µM,> 10 µM
same,IC50,second compound 3.16 µM,> 10 µM
same,IC50,second compound 10 µM,> 10 µM
same,"viability, T/C",[1],101%
same,"viability, T/C",[2],103%
same,"viability, T/C",[3],101%
same,"viability, T/C",[4],103%
same,"viability, T/C",[5],105%
same,"viability, T/C",[6],83.8%
same,"viability, T/C",[7],105%
same,"viability, T/C",[8],105%
same,"viability, T/C",[9],97%
same,"viability, T/C",[10],102%
same,"viability, T/C",[11],107%
same,"viability, T/C",[12],90.6%
same,"viability, T/C",[13],102%
same,"viability, T/C",[14],105%
same,"viability, T/C",[15],101%
same,"viability, T/C",[16],104%
same,"viability, T/C",[17],108%
same,"viability, T/C",[18],91.3%
same,"viability, T/C",[19],96.8%
same,"viability, T/C",[20],106%
same,"viability, T/C",[21],105%
same,"viability, T/C",[22],104%
same,"viability, T/C",[23],102%
same,"viability, T/C",[24],92.3%
same,"viability, T/C",[25],102%
same,"viability, T/C",[26],101%
same,"viability, T/C",[27],105%
same,"viability, T/C",[28],103%
same,"viability, T/C",[29],110%
same,"viability, T/C",[30],90.3%
same,"viability, T/C",[31],104%
same,"viability, T/C",[32],98%
same,"viability, T/C",[33],101%
same,"viability, T/C",[34],99.6%
same,"viability, T/C",[35],109%
same,"viability, T/C",[36],93.7%
C=CC(=O)N1CCN(c2nc(=O)n(-c3c(C)ccnc3C(C)C)c3nc(-c4c(O)cccc4F)c(F)cc23)C(C)C1 (stereo unspecified) + COC1C(OC(N)=O)C(O)C(Oc2ccc3c(O)c(NC(=O)c4ccc(O)c(CC=C(C)C)c4)c(=O)oc3c2C)OC1(C)C,IC50,second compound 0.0316 µM,> 10 µM
same,IC50,second compound 0.1 µM,> 10 µM
same,IC50,second compound 0.316 µM,> 10 µM
same,IC50,second compound 1 µM,> 10 µM
same,IC50,second compound 3.16 µM,> 10 µM
same,IC50,second compound 10 µM,> 10 µM
same,"viability, T/C",[1],102%
same,"viability, T/C",[2],94.8%
same,"viability, T/C",[3],98.9%
same,"viability, T/C",[4],101%
same,"viability, T/C",[5],92.8%
same,"viability, T/C",[6],84.1%
same,"viability, T/C",[7],98.9%
same,"viability, T/C",[8],107%
same,"viability, T/C",[9],93.3%
same,"viability, T/C",[10],91.4%
same,"viability, T/C",[11],88.3%
same,"viability, T/C",[12],97.6%
same,"viability, T/C",[13],102%
same,"viability, T/C",[14],101%
same,"viability, T/C",[15],103%
same,"viability, T/C",[16],96.5%
same,"viability, T/C",[17],96.2%
same,"viability, T/C",[18],99.6%
same,"viability, T/C",[19],101%
same,"viability, T/C",[20],97.5%
same,"viability, T/C",[21],97.4%
same,"viability, T/C",[22],98.6%
same,"viability, T/C",[23],93%
same,"viability, T/C",[24],104%
same,"viability, T/C",[25],102%
same,"viability, T/C",[26],94.2%
same,"viability, T/C",[27],95.9%
same,"viability, T/C",[28],92%
same,"viability, T/C",[29],97.4%
same,"viability, T/C",[30],101%
same,"viability, T/C",[31],85.8%
same,"viability, T/C",[32],88.4%
same,"viability, T/C",[33],89.8%
same,"viability, T/C",[34],85.9%
same,"viability, T/C",[35],88.3%
same,"viability, T/C",[36],85%
CCc1cc2c(N3CCc4c(cc(Cn5ccnc5)cc4-c4cn(C)nc4C(F)(F)F)C3=O)ccnc2c(OC)n1 + Cc1cccc(N(C)C(=O)C2C(O)CCN2c2nc(C)cc(C(F)(F)F)c2C#N)c1,IC50,second compound 0.0316 µM,> 10 µM
same,IC50,second compound 0.1 µM,> 10 µM
same,IC50,second compound 0.316 µM,> 10 µM
same,IC50,second compound 1 µM,> 10 µM
same,IC50,second compound 3.16 µM,> 10 µM
same,IC50,second compound 10 µM,> 10 µM
same,"viability, T/C",[1],105%
same,"viability, T/C",[2],107%
same,"viability, T/C",[3],107%
same,"viability, T/C",[4],108%
same,"viability, T/C",[5],110%
same,"viability, T/C",[6],94.1%
same,"viability, T/C",[7],107%
same,"viability, T/C",[8],106%
same,"viability, T/C",[9],104%
same,"viability, T/C",[10],107%
same,"viability, T/C",[11],105%
same,"viability, T/C",[12],99%
same,"viability, T/C",[13],104%
same,"viability, T/C",[14],100%
same,"viability, T/C",[15],107%
same,"viability, T/C",[16],110%
same,"viability, T/C",[17],105%
same,"viability, T/C",[18],99.5%
same,"viability, T/C",[19],101%
same,"viability, T/C",[20],99.4%
same,"viability, T/C",[21],108%
same,"viability, T/C",[22],109%
same,"viability, T/C",[23],102%
same,"viability, T/C",[24],107%
same,"viability, T/C",[25],102%
same,"viability, T/C",[26],107%
same,"viability, T/C",[27],106%
same,"viability, T/C",[28],106%
same,"viability, T/C",[29],107%
same,"viability, T/C",[30],98.4%
same,"viability, T/C",[31],104%
same,"viability, T/C",[32],98.4%
same,"viability, T/C",[33],98.8%
same,"viability, T/C",[34],102%
same,"viability, T/C",[35],98.5%
same,"viability, T/C",[36],102%
